Results from patent US10509041B2, “Glucose derivative, and cell imaging method and imaging agent using said derivative” (HIROSAKI UNIVERSITY, priority 2014, dated 2019).

Legend:
[1] = Fluorescence spectrum (excitation and fluorescence maxima); type: physicochemical
Excerpt: The fluorescence spectra of CDG synthesized in (1) and QDG synthesized in (2) were compared with the fluorescence spectrum of 2-NBDLG (manufactured by Peptide Institute, Inc.).
The numeric values described above the graph denote the fluorescence maximum of CDG and QDG, respectively. It is evident that the fluorescence maximum was largely shifted to shorter wavelength as compared with the fluorescence maximum of 2-NBDLG present around 550 nm.

[2] = test system: mouse insulinoma cells (MIN6); assay: Increase in fluorescence intensity (uptake) after administration of fluorescent glucose derivative to MIN6 cells, influence of cytochalasin B (CB) or phloretin (PHT), fluorescence microplate reader; type: cell-based; conditions: QDG final concentration 100 NM as printed, Ex 354 nm, Em 435 nm
[3] = test system: MIN6 cell masses (spheroids); assay: Fluorescent imaging of tumor cell masses (spheroids) of MIN6 cells with mixed fluorescent glucose derivative solutions; type: cell-based, mouse; conditions: 100 μM CDG+100 μM 2-NBDLG+20 μM 2-TRLG mixed solution, 3 minutes, 6 minutes after start of washout, culture day 17
Description: A fluorescent mixed solution containing 100 μM CDG, 100 μM 2-NBDLG, and 20 μM 2-TRLG (CDG/2-NBDLG/2-TRLG) was administered at 37° C. for 3 minutes to MIN6 cell masses (spheroids) at culture day 17, and fluorescent imaging was conducted.
10 μL of a culture solution containing MIN6 cells suspended at a density of 6×10^4 cells/mL was added dropwise onto each glass cover slip, and then, the glass cover slip was left standing for 40 minutes in an incubator for fixation to the glass surface. The cells were cultured by the addition of 3 mL of a culture solution (600 cells/slip). Spheroids were formed by continuing the culture for 15 to 17 days. Half the amount of the culture solution was replaced with a fresh one once every three days.
The MIN6 cells used were cells kindly provided by professor Junichi Miyazaki (Osaka University) and subcultured 6 to 10 times. Half the amount of the culture solution was replaced with a fresh one once every two days.
13.4 g of high glucose-containing Dulbecco's modified Eagle's Medium (DMEM-HG) (Sigma-Aldrich, #D5648), 3.4 g of NaHCO3, and 5 μL of 2-mercaptoethanol were dissolved in 1 L of ultrapure water, and the pH of the solution was adjusted to 7.30 to 7.35 in a CO2 incubator of 37° C. The culture solution was supplemented with fetal bovine serum (Hyclone, Cat# SH30070.03) at a final concentration of 10% and penicillin-streptomycin at a final concentration of 0.5%.
The whole amount of the 0.5 mg CDG vial was recovered using 0.73 mL in total of 10% DMSO and dissolved by addition to 7.0 ml of a KRB solution for image acquisition according to the method described in Non Patent Literature 2.
The whole amount of one 0.5 mg 2-NBDLG vial was dissolved in 7.3 mL of a KRB solution for image acquisition.
The CDG solution and the 2-NBDLG solution were mixed at a ratio of 1:1. The whole amount of the 0.2 mg 2-TRLG vial was recovered using 130 μL in total of DMSO and mixed with 13 ml of the CDG+2-NBDLG mixed solution according to the method described in Non Patent Literature 2 (final concentration: 100 μM CDG+100 μM 2-NBDLG+20 μM 2-TRLG mixed solution). […]
The glass cover slip with the cultured MIN6 cells was transferred into the KRB solution for image acquisition in a perfusion chamber loaded on a stage of a fluorescence microscope, followed by measurement. […]
The KRB solution for image acquisition was warmed in advance in an aluminum syringe heater and supplied to the perfusion chamber through hydrostatic pressure. […] Immediately before being introduced to the perfusion chamber, the solution was rewarmed via an inline heater so that the actually measured temperature of the perfusate in an observation region in the chamber was adjusted to 36±1° C. […]

[4] = test system: neuronal cells of the substantia nigra pars reticulate of the midbrain; assay: Fluorescent imaging of acutely isolated normal neuronal cells; type: cell-based, mouse; conditions: 3 minutes, 8 minutes after start of washout
Description: The whole amount of the 0.5 mg CLG vial was recovered using 0.73 mL in total of 10% DMSO and dissolved (100 μM) by addition to 14.79 ml of a HEPES solution for image acquisition according to the method described in Non Patent Literature 2. […]
150 mM NaCl, 5 mM KCl, 1 mM MgCl2, 2 mM CaCl2, and 10 mM HEPES (the pH of the solution was adjusted to 7.4 with a 1 M tris(2-amino-2-hydroxymethyl-1,3-propanediol) solution). The concentration of glucose was set to 10 mM. 0.1 mM carbenoxolone (Sigma-Aldrich, #C4790) was added thereto for the purpose of inhibiting the entrance and exit of fluorescently labeled glucose by way of gap junction/hemichannel. This HEPES solution for image acquisition was used for preparing the CLG solution and the mixed solution with the additional fluorescent sugar derivative.
Neuronal cells […] to the method described in the previous reports of the inventors (WO2010/16587 (Patent Literature 2)) and (WO2012/133688 (Patent Literature 4)) and attached to each glass cover slip coated with poly-L-lysine. Then, the glass cover slip was transferred into the HEPES solution for image acquisition in a perfusion chamber loaded on a stage of a fluorescence microscope, followed by observation.
A silicon plate of 1 mm thickness bored to have a streamline-shaped hole (10 mm wide x 35 mm long) was placed via cover glass onto an aluminum heating control platform (Warner Instruments) having a round hole (diameter: 18 mm) for an objective lens at the bottom, and allowed to be in close contact with the cover glass.
The HEPES solution for image acquisition was warmed in advance in an aluminum syringe heater and supplied to the perfusion chamber through hydrostatic pressure. The perfusion rate was adjusted to 1.3±0.2 mL/min using a flow rate adjuster. Immediately before being introduced to the perfusion chamber, the solution was rewarmed via an inline heater so that the actually measured temperature of the perfusate in an observation region in the chamber was adjusted to 32.5±1° C. The CLG/2-TRLG mixed solution was able to be supplied in the same way as above and was switched with the HEPES solution for image acquisition using an electromagnetic valve capable of controlling the opening and closing of the channel. The solution was removed using a vacuum pump capable of controlling suction pressure.
The fluorescence microscope used was NIKON ECLIPS-Ti, and images were acquired with a CCD camera Retiga 2000R.
CLG and 2-TRLG were each detected using the following filter cassette.
Excitation 360/40 nm, Dichroic mirror 400 nm, Emission 460/50 nm.
Excitation 567/15 nm, Dichroic mirror 593 nm, Emission 593 nm Long pass.
The objective lens used in this method was ×20 dry lens (Nikon Plan S Fluor). The images were acquired at 1600×1200 pixels. […]

Row | Compound | maximum excitation wavelength (Ex max) [1] | maximum fluorescence wavelength (Em max) [1] | other results
1 | O=c1oc2cc(NC3C(O)OC(CO)[C@@H](O)[C@@H]3O)ccc2cc1C(F)(F)F (stereo partly drawn) [Compound 3-TFMCDG, 2-deoxy-2-(2-oxo-3-trifluoromethyl-2H-chromen-7-yl)amino-D-glucose] | 381.0 nm | 455.0 nm | –
2 | O=c1ccc2ccc(NC3C(O)OC(CO)[C@@H](O)[C@@H]3O)cc2[nH]1 (stereo partly drawn) [QDG, 2-deoxy-2-(2-oxo-1,2-dihydroquinolin-7-yl)amino-D-glucose] | 353.5 nm | 423.0 nm | effect of CB on increase in fluorescence intensity caused by administration ([2]; CB as in Example 11): significantly inhibited; effect of PHT on increase in fluorescence intensity caused by administration ([2]; PHT as in Example 12): more strongly inhibited
3 | O=c1cc(C(F)(F)F)c2ccc(NC3C(O)OC(CO)[C@@H](O)C3O)cc2o1 (stereo partly drawn) [Compound 4-TFMCDG, 2-deoxy-2-(2-oxo-2H-4-trifluoromethyl-chromen-7-yl)amino-D-glucose] | 380.0 nm | 500.0 nm | –
4 | Cc1cc2ccc(NC3C(O)OC(CO)[C@@H](O)[C@@H]3O)cc2oc1=O (stereo partly drawn) [Compound 3-MCDG, 2-deoxy-2-(2-oxo-3-methyl-2H-chromen-7-yl)amino-D-glucose] | 361.0 nm | 460.0 nm | –
5 | O=[N+]([O-])c1ccc(NC2C(O)OC(CO)[C@H](O)C2O)c2nonc12 (stereo partly drawn) [Compound 2-NBDLG, 2-[N-(7-nitrobenz-2-oxa-1,3-diazol-4-yl)amino]-2-deoxy-L-glucose, reference compound] | – | around 550 nm | uptake into cells of MIN6 spheroids, intracellular localization [3]: strongly taken into the cytoplasm
6 | O=c1ccc2ccc(NC3C(O)OC(CO)[C@H](O)[C@H]3O)cc2[nH]1 (stereo partly drawn) [QLG, 2-deoxy-2-(2-oxo-1,2-dihydroquinolin-7-yl)amino-L-glucose] | 353.5 nm | 423.0 nm | –
7 | 2-Texas Red-2-amino-2-deoxy-L-glucose [Compound 2-TRLG, reference compound] | – | – | uptake into normal neuronal cells ([4]; 100 μM CDG+20 μM 2-TRLG mixed solution, 14-day-old mouse): not taken into the normal neuronal cells; uptake into normal neuronal cells ([4]; 100 μM CLG+20 μM 2-TRLG mixed solution, 21-day-old mouse): not taken into the normal neuronal cells; uptake in the central portion of the spheroid [3]: strong uptake
8 | Cc1cc(=O)oc2cc(NC3C(O)OC(CO)[C@@H](O)[C@@H]3O)ccc12 (stereo partly drawn) [Compound 4-MCDG, 2-deoxy-2-(2-oxo-4-methyl-2H-chromen-7-yl)amino-D-glucose] | 362.0 nm | 446.0 nm | –
